From PubChem BioAssay AID179 (DTP/NCI, 2004)
The source made the active and inactive calls.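 The calls were made as follows: active = compounds giving half or more protection of infected cells from virus-caused growth loss, again on retest; inactive = the rest.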 Where a SMILES comes first, the peptide text is derived from it. [ ]: non-standard residue; d: D form. The star is where a group is joined. Phe(4-NO2) = N[CH](Cc1ccc([N+](=O)[O-])cc1)C(=O)O; Cbz = O=C(OCc1ccccc1)*

Tested on: CEM cells HIV-1 protection, formazan growth assay
Experiment: NCI AIDS Antiviral Assay
Settings: for IC50: measured here: growth of uninfected CEM cells
Experimental: The ability of compounds to protect human CEM cells from HIV-1 infection is measured as a screen for new compounds capable of inhibiting the HIV virus. Five concentrations of drug were tested on uninfected and infected cells and cell growth was measured using a soluble formazan assay. […] Compounds that provided at least 50% protection were retested. Compounds that provided at least 50% protection on retest were listed as moderately active. Compounds that reproducibly provided 100% protection were listed as confirmed active. […] Note that the inability to provide protection could be due to toxicity.

SMILES	outcome	EC50	IC50
O=C1C(c2ccccc2Cl)[C@H]2CC=C[C@H]2N1O (some centres undefined)	inactive		
O=C(Nc1ccccc1)N(C1=NCC(CI)S1)c1ccc(F)c(F)c1 (centres undefined)		> 200 µM	18.2 µM
Cc1nonc1NC(=O)OCc1ccccc1		> 112 µM	> 112 µM
O=P(O)(O)C(NCC(O)CN1CCOCC1)P(=O)(O)O (centres undefined)		> 200 µM	> 200 µM
COc1cc(COC(=O)N2CC=CC2C(=O)O)c([N+](=O)[O-])cc1OC (centres undefined)		> 708 µM	> 708 µM
CCCN(CCCCC(NC(C)=O)C(=O)NCc1ccccc1)C(=O)NCCCl (centres undefined)		> 589 µM	> 589 µM
CN1C(=O)c2ccccc2Cc2c(NCc3ccccc3)ncnc21		> 89.1 µM	19.1 µM
COc1cccc(NC(=O)CC(=O)N2N=C(C)C(N=Nc3ccc(S(=O)(=O)CCOS(=O)(=O)O)cc3)C2=O)c1 (centres undefined)		> 200 µM	3.02 µM
CCCC/C=C/Cc1[nH]c2ccccc2c(=O)c1C		> 28.2 µM	
Cc1ccc(S(=O)(=O)N/N=C2/CCC3(O)CC2(C)CCC2[C@H]3CC2(C)C)cc1 (some centres undefined)		> 200 µM	33.9 µM
NC(=S)NNc1c([N+](=O)[O-])cnn(-c2ccccc2)c1=O		> 58.9 µM	0.324 µM
COc1ccc(/C=C(/NC(=O)c2ccccc2)C(=O)Nc2ccccc2)cc1OC		> 200 µM	> 200 µM
C/C(=N\OCC(O)CNC(C)C)c1ccc2c(c1)NC(=O)CS2 (centres undefined)	inactive		
Cc1c(=O)n(O)c2ccccc2[n+]1[O-]		> 200 µM	> 200 µM
C#CCNC(Cc1ccccc1)C(=O)O (centres undefined)		> 200 µM	> 200 µM
O=C1OC(C2Cc3ccccc3C2=O)c2ccccc21 (centres undefined)		> 200 µM	186 µM
COc1ccc(/C=C2\CN(C)CC3=C2OC(N)=C(C#N)C3c2ccc(OC)cc2)cc1 (centres undefined)		> 200 µM	19.1 µM
O=C(O)C1=C(Cl)c2ccccc2S1(=O)=O	inactive		
Cn1c([N+](=O)[O-])cnc1CSc1ccc(C#N)cc1		117 µM	> 200 µM
N#CC1CC(c2ccccc2)Nc2cc(Cl)ccc2N1 (centres undefined)		> 47.9 µM	6.92 µM
CCc1n[nH]c(=O)n1CCO	inactive		

SMILES	outcome	EC50	IC50
O=c1cc(/C=C/c2ccccc2)c2ccc(O/C(=C\c3ccccc3)c3nc4ccccc4c(=O)o3)cc2o1	inactive		
CC(=O)OCC1OC(OC(C)=O)C(NC#N)C(OC(C)=O)C1OC(C)=O (centres undefined)		> 676 µM	61.7 µM
CN(CCC#N)c1ccc(/C=C(\C#N)c2ccc(Cl)cc2)cc1		> 200 µM	15.5 µM
COc1cccc(C(=O)C#Cc2cnc(OC)nc2OC)c1		> 0.2 µM	0.0437 µM
CCOC(=O)c1cnc2c(ccc3[nH]n(C)nc32)c1=O		> 251 µM	> 251 µM
N#C/C(=C\c1cc(O)c(O)c(O)c1)C(=O)NCCCCCNC(=O)/C(C#N)=C/c1cc(O)c(O)c(O)c1		> 200 µM	38 µM
CN=C(N)NC		> 1480 µM	> 1480 µM
O=C1C2CCC(C2)C12CC1(c3ccccc3)C(=O)c3ccccc3N1O2 (centres undefined)		> 28.8 µM	27.5 µM
Cc1c(O)c(OC2OC(CO)C(O)C(O)C2O)cc2c1CC[C@@H]1C2(C)C(=O)C[C@]2(C)[C@@H]([C@@](C)(O)C(O)CCC(C)(C)O)[C@H](O)C[C@@]12C (some centres undefined)		> 200 µM	> 200 µM
N#C/C(=C\c1ccccc1F)C(=O)O		> 676 µM	302 µM
O=S(=O)(c1ccc(I)cc1)c1ccc(I)cc1	inactive		
COc1ccc(/C(=C\c2cc(OC)c(OC)cc2[N+](=O)[O-])C(=O)O)cc1	inactive		
O=C(O)c1sccc1-c1cccc2ccccc12		> 200 µM	83.2 µM
CCCc1c(C(=O)OCC)[nH]c(-c2ccc(-c3[nH]c(C(=O)OCC)c(CCC)c3C(=O)OCC)o2)c1C(=O)OCC		> 4.79 µM	> 4.79 µM
O=C(Nc1cc2c(oc1=O)CCCCC2)c1cnccn1		> 100 µM	> 100 µM
COc1ccc(NC(=S)Nc2ccccn2)cc1		> 200 µM	> 200 µM
COC(=O)C1Cc2c([nH]c3ccccc23)-c2[nH]c3ccccc3c2CC(NC(C)=O)C(=O)NCC(=O)N1 (centres undefined)		> 200 µM	> 200 µM
Cc1ccc(C2CC3(c4ccccc4)ON=C(c4ccccc4)N3c3ccccc3S2)cc1 (centres undefined)		> 200 µM	41.7 µM
COc1cc2c(cc1OC)C1c3ccccc3CCCN1CC2 (centres undefined)		> 200 µM	123 µM
COC(=O)C(CC(=O)Nc1ccc(C)cc1)C(=O)C(=O)Nc1ccccc1C(C)C (centres undefined)		> 229 µM	> 229 µM
CCCNC(=O)N(CCN(C)C)S(=O)(=O)c1ccc(Cl)cc1	inactive		

SMILES	outcome	EC50	IC50
Cc1cc2c(C(C)C)c(O)c(O)c(C=Nc3ccccc3)c2c(O)c1-c1c(C)cc2c(C(C)C)c(O)c(O)c(C=Nc3ccccc3)c2c1O		0.55 µM	0.562 µM
Cc1ccc(NC(=O)C(=O)C(C#N)c2ccccc2C)cc1C (centres undefined)		> 23.4 µM	> 23.4 µM
CCCCCCN=Cc1c(O)c(O)c(C(C)C)c2cc(C)c(-c3c(C)cc4c(C(C)C)c(O)c(O)c(C=NCCCCCC)c4c3O)c(O)c12		> 200 µM	129 µM
O=C(Cc1ccccc1)NN1C(=O)C(Cl)C1c1ccc([N+](=O)[O-])cc1 (centres undefined)		> 20 µM	> 20 µM
Cc1nc2c(=O)[nH]cnc2o1		> 575 µM	> 575 µM
CCOC(=O)C1(C)C(=O)CC2c3nc4ccccc4cc3CN2C1=O (centres undefined)		> 10 µM	> 10 µM
Cc1ccc(S(=O)(=O)/N=S(\C)c2cccc(Cl)c2)cc1 (centres undefined)		> 200 µM	170 µM
CCCCCCCC(=O)OCC1OC(n2cc(F)c(=O)[nH]c2=O)C(N)C(OC(=O)CCCCCCC)C1O (centres undefined)		> 47.9 µM	38.9 µM
O=C(OCCc1ccccc1)c1ccc2cc(O)c(O)cc2c1		> 31.6 µM	12.9 µM
Cc1cn(C2CC3C(COCN3O)O2)c(=O)[nH]c1=O (centres undefined)		> 200 µM	166 µM
CC(C)(C)N/N=C(\C(=O)Nc1nc(=S)[nH][nH]1)C1C(=O)Nc2ccccc2S1=O (centres undefined)	inactive		
COC(=O)C(=C\Sc1ccccc1)/C=C/C(=O)OC(C)(C)C	inactive		
COC(=O)Cc1cccc2c(=O)c(S(=O)(=O)NC(=O)Nc3ccc(Cl)cc3)c(-c3ccccc3)oc12		> 200 µM	41.7 µM
O=C(NC(=Nc1ccccc1)SCSC(=Nc1ccccc1)NC(=O)c1ccco1)c1ccco1		> 14.5 µM	> 14.5 µM
COC(=O)c1c(C)cccc1C1CN=NC12Cc1ccccc1C2=O (centres undefined)		27.5 µM	102 µM
COC1/C=C/OC2(C)Oc3c(C)c(O)c4c(O)c(c(/C=N/N5C(C)CN(Cc6ccc(NC(C)=O)cc6)CC5C)c(O)c4c3C2=O)NC(=O)C(C)=C/C=C/C(C)C(O)C(C)C(O)C(C)C(OC(C)=O)C1C (centres undefined)		> 200 µM	9.12 µM
COc1cc(-c2ccc(N=Nc3cc(S(=O)(=O)O)c4ccccc4c3N)c(OC)c2)ccc1N=Nc1cc(S(=O)(=O)O)c2ccccc2c1N		13.2 µM	155 µM
CCOC(=O)C1=C(NC(C)(C)C)OCC1=O	inactive		
O=C(OC12CC3CC(CC(C3)C1)C2)c1ccc(NCc2cc(O)ccc2O)cc1		> 20 µM	0.955 µM
CCOC(=O)CCC(NC(=O)OCc1ccccc1)C(=O)NC(CCC(=O)OCC)C(=O)NC(CCC(=O)OCC)C(=O)NC(CCC(=O)OCC)C(=O)NC(CCC(=O)OCC)C(=O)NC(Cc1ccc([N+](=O)[O-])cc1)C(=O)NC(CCC(=O)OCC)C(=O)NC(CCC(=O)OCC)C(=O)NC(CCC(=O)OCC)C(=O)NC(CCC(=O)OCC)C(=O)NC(CCC(=O)OCC)C(=O)OCC (centres undefined) (Cbz-E(OEt)E(OEt)E(OEt)E(OEt)E(OEt)[Phe(4-NO2)]E(OEt)E(OEt)E(OEt)E(OEt)E(OEt)-OEt; configuration not given here)		> 50.1 µM	> 50.1 µM
CNc1ccccc1S(=O)(=O)c1ccccc1[N+](=O)[O-]		3.55 µM	47.9 µM

SMILES	outcome	EC50	IC50
O=C(CC(C(=O)c1ccsc1)c1ccc2c(c1)OCO2)c1ccccc1 (centres undefined)		> 200 µM	> 200 µM
CC(=O)NC(CCCCNC(=O)NCCCl)C(=O)NCc1ccccc1 (centres undefined)		> 646 µM	> 646 µM
N/N=C(\c1nc2ccc(Cl)cc2[nH]c1=O)C(O)c1ccc(Cl)c(Cl)c1 (centres undefined)		> 245 µM	20.4 µM
CCOC(=O)C(=O)Nc1c(C)cccc1C		> 1120 µM	> 1120 µM
C/C(O)=C(/C=N/C(N)=S)C(N)=O	inactive		
O=C1OC2C(O)COC2(O)C1(O)C(C[N+](=O)[O-])c1ccc(Cl)cc1 (centres undefined)		> 200 µM	17 µM
N#Cc1c(N=Cc2ccccc2)c(C(=O)Nc2ccccc2)n2c1CCC2		> 50.1 µM	> 50.1 µM
CCOCCOCCOCc1nc(C#N)c(N)o1		> 200 µM	> 200 µM
O=C1OC(=O)C2C1C(c1ccccc1[N+](=O)[O-])C=C(c1ccco1)N2c1ccncc1 (centres undefined)		> 20 µM	2.51 µM
CCOC(=O)NC(Nc1ccc(S(=O)(=O)Nc2nc(C)cc(C)n2)cc1)(C(=O)OCC)C(F)(F)F (centres undefined)		> 200 µM	> 200 µM
CSC12c3cc(C)n(-c4ccc([N+](=O)[O-])cc4)c3CC(C)(C)CN1C(=O)C2Oc1ccccc1 (centres undefined)		> 200 µM	49 µM
CC(C)=CCOc1cc(O)c2c(O)c3c(cc2c1)CC(C)(C)CC3=O		> 100 µM	7.08 µM
O=C1/C(=C/c2ccc3c(c2)OCO3)SC2C=Nc3ccccc3N12 (centres undefined)		> 2.24 µM	> 2.24 µM
CCOC(=O)/C=C/C1OC(C)(C)OC1/C=C/C(=O)OCC (centres undefined)		> 200 µM	27.5 µM
COc1ccc(/C=C(\C2=NC(=O)CS2)c2nc3ccccc3[nH]2)cc1		> 20.9 µM	> 20.9 µM
NS(=O)(=O)c1nnc(/N=C(/CCC(=O)O)C(=O)O)s1		> 200 µM	> 200 µM
COC(=O)C1=CC(NC(=O)OCc2ccccc2)C(C(=O)c2ccccc2)C[C@@H]1Sc1ccccc1 (some centres undefined)	inactive		
CC(C)N=C=NC(C)C		> 380 µM	> 380 µM
Cc1ccc(-n2nc3c(c(C#N)c2=O)-c2ccccc2C3=O)cc1	inactive		
